Results published in US4456614A, “3-Amino-1-[(1,4-benzodioxan)-2-yl-methoxy]-2-propanols, pharmaceutical compositions thereof, and their use as medicaments” (Pierre Fabre S.A., priority 1980, dated 1984).
Where a name gives a salt, the structure may show the parent alone.

Key:
[1] = test system: isolated atrium (rabbit right atrium); assay: Effect on the frequency of spontaneous flutterings of the isolated atrium; settings: for inhibition at 10 µg/mL: Oryctolagus cuniculus, 0.4 h, after 24 minutes, 1 mg (per 100 ml), read-out: Percentage of reduction of the frequency
Method: (c) Effect on the frequency of spontaneous flutterings of the isolated atrium. Method: Rabbit right atrium in survival in a Ringer-Locke's solution. The substances to be studied are introduced into the tank (at the rate of 0.5 and 1 mg per 100 ml) and remain in contact with the myocardial tissue for 24 minutes.

[2] = test system: ventricular tachycardia of digitalic origin; assay: Ventricular tachycardia of digitalic origin (ouabain) in anesthetized dogs; type: in vivo; settings: doses of 2 and 5 mg/kg
Text: (a) Action with respect to ventricular tachycardia of digitalic origin (LUCHESI and HARDMAN--J. Pharmacol. exp. Ther., 1961, No. 132, pages 372 to 81).
Method: Creation of a stable ventricular tachycardia in ten dogs (anesthetized) by successive intravenous injections of ouabain.

[3] = test system: auricular tachycardia produced by aconitine; assay: Auricular tachycardia produced by aconitine in dogs; type: in vivo; settings: 5 mg/kg
Text: (b) Influence on an auricular tachycardia produced by aconitine.
Method: (D. SCHERF--Proc. Soc. exp. Biol., 1947, 64, 233). A tachycardia is caused in dogs by intramural injection of aconitine in the right atrium near the sinusoidal node.
The rhythm is increased in proportions of 80 to 100%. The auriculo-ventricular tracks show normal permeability, the ventricles are driven at the same frequency.

[4] = test system: isolated rabbit atrium; assay: Activity on the electrosystolic entrainment of the isolated rabbit atrium; settings: isolated rabbit right atrium, Ringer-Locke's solution
Method: (d) Activity on the electrosystolic entrainment of the isolated rabbit atrium (G. S. DAWES--Pharmacol. Rev., 4, 43-84, 1952).
Method: Rabbit right atrium in a Ringer-Locke's solution.
After determination of the threshold voltage for the entrainment of the muscle, the latter is subjected to frequencies which increase in successive steps until obtaining a maximum frequency for which the tissue is incapable of responding to the stimuli.
The product is added to the bath. Three electric entrainments are effected in the following 25 minutes. The experiment is then continued for one hour after the rinsing of the tank.

[5] = test system: adrenergic receptors; assay: Inhibitory property of the adrenergic receptors (isoprenaline tachycardia in dogs); type: in vivo
Text: (2) Search for an inhibitory property of the adrenergic receptors
Method: Isoprenaline tachycardia in dogs. Simultaneous recording of the heart rate and of the arterial pressure.

[6] = test system: cardiovascular system; assay: Systemic effects in dogs; type: in vivo; settings: 1, 2 and 5 mg/kg
Method: (3) Systemic effects in dogs
Doses used: 1, 2 and 5 mg/kg
left intraventricular pressure

[7] = test system: central nervous system; assay: Potentialization of the barbiturate and chloralhydrate anesthesia in mice; type: in vivo; settings: 100 mg/kg
Text: Potentialization of the barbiturate and chloralhydrate anesthesia in mice.

[8] = test system: toxicity of pentetrazole; assay: Anticonvulsant property (pentetrazole toxicity in mice); type: in vivo; settings: orally, 100 mg/kg, pentetrazole subcutaneously
Text: Anticonvulsant property (G. CHEN and R. PORTMAN, A.M.A. Arch. Neurol. Psychiat., 68, 498, 1952).

[9] = test system: toxicity to yohimbine; assay: Anti-depressant properties (potentialization of yohimbine toxicity in mice); type: in vivo
Text: Anti-depressant properties (W. J. LANG and S. GORSHORN Arch. Int. Pharmacodyn., 142, 457, 1963).

[10] = test system: Local anesthesia; assay: Local anesthesia (test of J. Regnier); type: in vivo; settings: 1% solution
Text: Local anesthesia: test of J. Regnier--Doctoral Dissertation, Med., 203 pages, Bruilliard St Dizier, 1929.

[11] = test system: Urinary excretion; assay: Diuretic effect in rats (Lipschitz); type: in vivo; settings: 100 mg/kg orally
Text: Diuretic effect (W. LIPSCHITZ J. Pharmacol. Exp. Ther., 79, 97, 1943) in rats.

[12] = Solubility in water; type: physicochemical

CCC1CN2CCC1CC2[C@@H](O)c1ccnc2ccc(OC)cc12 (stereo partly shown) [Dihydroquinidine, reference compound]
inhibition at 10 µg/mL [1]: 35%

CC(C)(C)NCC(O)COCC1COc2ccccc2O1 (stereo not shown) [Example 1, 3-tertiobutylamino-1-[(1,4-benzodioxan)-2-ylmethoxy]-2-propanol maleate]
opposition of ectopic rhythm ([2]; ten dogs, ouabain): opposes ectopic rhythm in all the animals
period of activity ([2]; in 80% of the cases): more than 30 minutes
% reduction of auricular tachycardia [3]: 60%
effect on auricular tachycardia [3]: reduces auricular tachycardia substantially and lastingly
persistence of the effect after injection [3]: 30 min
inhibition at 10 µg/mL [1]: 16%
chronotropic effect compared with dihydroquinidine ([1]; isolated rabbit right atrium, Ringer-Locke's solution): definitely a less negative chronotropic effect than dihydroquinidine
functional refractory period of the isolated atrium [4]: extends the functional refractory period of the isolated atrium in the same way as dihydroquinidine
beta-blocking effect ([5]; 5 mg/kg): substantial
cardioselectivity ([5]; 5 mg/kg): cardioselectivity is noted
reduction of isoprenaline tachycardia ([5]; from 1 mg/kg intravenously): significantly reduces the isoprenaline tachycardia starting with a dose of 1 mg/kg intravenously
force of cardiac contraction [6]: decreases the force of cardiac contraction
impact on the cardiovascular system [6]: little impact on the cardiovascular system
peripheral resistances [6]: decreases the force of cardiac contraction and the peripheral resistances
Potentialization of the barbiturate and chloralhydrate anesthesia [7]: nothing to report
protection from toxicity of pentetrazole [8]: does not protect mice from toxicity of pentetrazole
potentialization of toxicity to yohimbine [9]: No potentialization of toxicity to yohimbine
local anesthetic properties compared with Lidocaine [10]: local anesthetic properties superior to Lidocaine
diuretic power [11]: does not have any diuretic power
Urinary excretion ([11]; Control 28%): 35%
solubility [12]: 100 mg/mL
